Experimental data taken from patent publication US20040214856A1, “Cannabinoid receptor ligands and uses thereof” (Pfizer Inc, priority 2003, published 2004).

System: CB-1 receptor
Test: CB-1 receptor binding assay ([3H]SR141716A displacement)
Conditions: inhibition of [3H]SR141716A binding; rat or human protocol not specified
Experimental: The following assays were designed to detect compounds that inhibit the binding of [^3H] SR141716A (selective radiolabeled CB-1 ligand) and [^3H] 5-(1,1-dimethylheptyl)-2-[5-hydroxy-2-(3-hydroxypropyl)-cyclohexyl]-phenol; radiolabeled CB-1/CB-2 ligand) to their respective receptors.
PelFreeze brains (available from Pel Freeze Biologicals, Rogers, Arkansas) were cut up and placed in tissue preparation buffer (5 mM Tris HCl, pH=7.4 and 2 mM EDTA), polytroned at high speed and kept on ice for 15 minutes. The homogenate was then spun at 1,000×g for 5 minutes at 4° C. The supernatant was recovered and centrifuged at 100,000×G for 1 hour at 4° C. The pellet was then re-suspended in 25 ml of TME ([…], pH=7.4, 5 mM MgCl2, and 1 mM EDTA) per brain used. A protein assay was performed and 200 μl of tissue totaling 20 μg was added to the assay.
The test compounds were diluted in drug buffer (0.5% BSA, 10% DMSO and TME) and then 25 μl were added to a deep well polypropylene plate. [^3H] […] In the morning the filters were counted on a Wallac Betaplate™ counter (available from PerkinElmer Life Sciences™, Boston, Mass.). […]
The test compounds were diluted in drug buffer (0.5% BSA, 10% DMSO and TME) and then 25 μl were added to a deep well polypropylene plate. […] In the morning the filters were counted on a Wallac Betaplate™ counter (available from PerkinElmer Life Sciences™, Boston, Mass.).

CB-1 binding activities	SMILES
4 nM	CC(C)N1Cc2nn(-c3ccccc3Cl)c(-c3ccc(C#N)cc3)c2C1=O [Example 1A-2, 2-(2-chloro-phenyl)-5-isopropyl-3-(4-cyano-phenyl)-5,6-dihydro-2H-pyrrolo[3,4-c]pyrazol-4-one]
2 nM	CC(C)N1Cc2nn(-c3ccccc3Cl)c(-c3ccc(Cl)cc3)c2C1=O [Example 1A-3, 2-(2-chloro-phenyl)-5-isopropyl-3-(4-chloro-phenyl)-5,6-dihydro-2H-pyrrolo[3,4-c]pyrazol-4-one]
